What was measured:
Type in all cases: physicochemical
[1] = physical stability of amorphous modification (Example 7)
Description: Attempts were made to produce the amorphous modification of (1R,2R)-3-(3-dimethylamino-1-ethyl-2-methyl-propyl)-phenol by evaporation, lyophilization or melting.
7.1) 150 mg (1) were dissolved in 3 ml MeOH. The solvent was removed on a rotary evaporator. A colourless oil remained. The residue was dried in a vacuum.
7.2) 150 mg (1) were dissolved in 2 ml 1,4-dioxane. The solvent was removed by freeze-drier.
7.3) 150 mg (1) were dissolved in 2 ml 1,4-dioxane. The solvent was removed by freeze-drier (−85° C., 0.5 mbar). A colourless residue remained and crystallized spontaneously before it was possible to perform a PXRD analysis. […] The melt was frozen with dry ice. An amorphous film was obtained which crystallized within 1 hour.

[2] = crystallization of amorphous oily residues on storage (Example 1); settings: stored at RT or at 5° C.
Description: Amorphous (1R,2R)-3-(3-dimethylamino-1-ethyl-2-methyl-propyl)-phenol was obtained by rapid evaporation of a solution of the compound on a rotary evaporator. The oily residues were stored at RT or at 5° C. All the samples crystallized within 24 hours.

[3] = dynamic vapor sorption (DVS); settings: 25° C.; for changes in mass (DVS): dynamic mode, 5% relative air humidity/hour; for hygroscopicity: DVS
Description: Crystalline modifications A and B of (1R,2R)-3-(3-dimethylamino-1-ethyl-2-methyl-propyl)-phenol were each characterized by dynamic vapor sorption (DVS). The analyses were recorded in dynamic mode (5% relative air humidity/hour).
The DVS cycles are reversible.

[4] = rate of dissolution in water, second determination (tablets); settings: for rate of dissolution: tablets, in water
Description: (§1) To analyse the rate of dissolution of modifications A and B in water, two different determinations were carried out.

[5] = mechanical stress: ball mill grinding and tablet compaction (Example 8); settings: for modification obtained after tablet compaction: IR tablet press, pressure 10 t, 30 min; for modification obtained after grinding in ball mill: shaking frequency 30 sec^-1, RT, 2x90 min, 1x60 min
Description: The effect of mechanical stress from grinding with a ball mill (model Retsch MM200, agate vessel and agate ball with 5 mm diameter) and from pressure during the production of a tablet was analysed.
8.1) A tablet was produced with 100 mg (1) on an IR tablet press (pressure 10 t, 30 min).
8.4) 15 mg of the crystalline form A were ground in a ball mill (shaking frequency: 30 sec^−1, RT) as follows: 2×90 min, 1×60 min, 2×30 min discontinuation.

[6] = rate of dissolution in water, first determination (stirred suspension); settings: particle size distribution not taken into account
Description: as §1
Under these conditions, the particle size affects the result.

[7] = relative thermodynamic stability, suspension of mixtures of modifications A and B (Example 9); settings: temperature range of 5-85° C., preferably 5-50° C.
Description: The suspension was shaken overnight in an Eppendorf Thermomixer at RT. The obtained solid was filtered out and characterized by FT Raman spectral analysis. […] The suspension was shaken overnight in an Eppendorf Thermomixer at RT. The resulting solid was filtered out and characterized by FT Raman spectral analysis. […] The suspension was stirred for three days at 5° C. The obtained solid was filtered out and characterized by FT Raman spectral analysis. […] The suspension was stirred overnight at 50° C. […] All solid components were dissolved. After cooling to RT, small amounts of a colourless solid were precipitated. The solvent was removed in a nitrogen flow. […]

[8] = suspension of modification B in various solvents (Example 6); settings: 2 days; for modification obtained after suspension: stirred at RT
Description: It was possible to exclude the formation of solvates with the selected solvents.
6.1) 200 mg (1) were suspended in 500 μl TBME. The mixture was stirred at RT for a duration of 2 days and the resulting solid was filtered out.
6.2) 100 mg (1) were suspended in 500 μl heptane/TBME (1:1). The mixture was stirred at RT for a duration of 2 days and the resulting solid was filtered out.
6.3) 100 mg (1) were suspended in 500 μl H2O. The mixture was stirred at RT for a duration of 2 days and the resulting solid was filtered out.
6.4) 100 mg (1) were suspended in 500 μl IPE. The mixture was stirred at RT for a duration of 2 days and the resulting solid was filtered out.
6.5) 100 mg (1) were suspended in 500 μl H2O/EtOH. The mixture was stirred at RT for a duration of 2 days and the resulting solid was filtered out.

[9] = solubility in solvents; settings: in saturated hydrocarbons (n-pentane, n-hexane, n-heptane) and water
Source text: Conventional organic solvents known to persons skilled in the art may be used as solvents in a solution of this type, in particular alcohols such as methanol, ethanol, 1-propanol and 2-propanol, esters such as ethyl acetate, ketones such as acetone and ethylmethyl ketone, ethers such as diethyl ether, tert-butyl methyl ether, 1,4-dioxane and tetrahydrofuran, nitriles such as acetonitrile, chlorinated hydrocarbons such as dichloromethane, aromatic hydrocarbons such as toluene, and also dimethyl formamide and dimethyl sulfoxide.

CC[C@@H](c1cccc(O)c1)[C@@H](C)CN(C)C [amorphous modification, (1R,2R)-3-(3-dimethylamino-1-ethyl-2-methyl-propyl)-phenol]
crystallization of amorphous samples ([1]; amorphous samples from evaporation, lyophilization or melting): crystallized within hours | time until amorphous film crystallized ([1]; melted at 88-91° C., melt frozen with dry ice): ≤ 1 h | time until amorphous oily residues crystallized [2]: ≤ 24 h

CC[C@@H](c1cccc(O)c1)[C@@H](C)CN(C)C [modification A, (1R,2R)-3-(3-dimethylamino-1-ethyl-2-methyl-propyl)-phenol]
changes in mass (DVS) [3]: 0.8% | hygroscopicity [3]: not or at most slightly hygroscopic | polymorphic conversion during dissolution determination ([4]; tablets in water, analysed with FT Raman): converted into form B | rate of dissolution [4]: 0.003 mg/min cm^2 | modification obtained after tablet compaction [5]: Modification A | modification obtained after grinding in ball mill [5]: converted into modification B | modification obtained after grinding in ball mill ([5]; listed as form A): Modification B

CC[C@@H](c1cccc(O)c1)[C@@H](C)CN(C)C [modification B, (1R,2R)-3-(3-dimethylamino-1-ethyl-2-methyl-propyl)-phenol]
changes in mass (DVS) [3]: 0.3% | hygroscopicity [3]: not or at most slightly hygroscopic | rate of dissolution, comparison of forms [6]: dissolves more rapidly | rate of dissolution [4]: 0.003 mg/min cm^2 | modification obtained after tablet compaction ([5]; listed as (1)): Modification B | modification obtained after grinding in ball mill [5]: Modification B | thermodynamic stability of the form [7]: most thermodynamically stable form | modification obtained after suspension ([8]; H2O): modification B | modification obtained after suspension ([8]; H2O/EtOH): modification B | modification obtained after suspension ([8]; IPE): modification B | modification obtained after suspension ([8]; TBME): modification B | modification obtained after suspension ([8]; heptane/TBME (1:1)): modification B | change upon suspension in various solvents ([8]; various solvents, RT): no change

CC[C@@H](c1cccc(O)c1)[C@@H](C)CN(C)C [(1R,2R)-3-(3-dimethylamino-1-ethyl-2-methyl-propyl)-phenol]
solubility [9]: only poorly soluble

Source: patent US8134032B2, “Crystalline modifications of (1R,2R)-3-(3-dimethylamino-1-ethyl-2-methyl-propyl)-phenol” (priority 2007, dated 2012)
